Assay results reported in patent publication US10273239B2, “Spiro-lactam NMDA receptor modulators and uses thereof” (Aptinyx Inc., priority 2013, dated 2019).
pEC50: −log10 of the molar value.

Tests used:
[1] = molecular target: T1, NMDA receptor (rat cortical membranes) (Rattus norvegicus, UniProt P35439); experiment: [3H] MK-801 binding assay (potentiation of [3H]MK-801 binding)
T1 construct: well washed rat cortical membranes (200 μg); from tissue; host or cells: rat cerebral cortex membranes
Procedure: Assays were conducted as described in Moskal et al. (Moskal, J. R., Kuo, A. G., Weiss, C., Wood, P. L., O'Connor Hanson, A., Kelso, S., Harris, R. B., Disterhoft, J. F., 2005. GLYX-13: a monoclonal antibody-derived peptide that acts as an N-methyl-D-aspartate receptor modulator. Neuropharmacology. 49, 1077-87) The potentiation of [^3H]MK-801 binding (5 nM; 22.5 Ci/mmol) to well washed rat cortical membranes (200 μg) was measured under non-equilibrium conditions (15 min @ 25° C.) in the presence of increasing concentrations of test compounds and 50 μM glutamate. Zero levels were determined in the absence of any glycine ligand and in the presence of 30 μM 5,7 DCKA. Maximal stimulation was measured in the presence of 1 mM glycine, and 50 μM glutamate was present in all samples. The facilitation of [^3H]MK-801 binding by tests compounds was calculated by using a 3 parameter log agonist vs. response equation (Graph pad Prism, USA) and potency (EC50, expressed in pM) and maximal activity (% maximal stimulation) were calculated for the test compound.

LTP = experiment: Unified Activity Data: LTP; details: LTP Concentration 1 uM
[2] = Unified Activity Data: Porsolt; format: in vivo; details: 3 mg/kg, IV, 1 hour post dose

| SMILES | pEC50 [1] | Unified Activity Data: LTP Augmentation (Percent) (LTP) | Unified Activity Data: Porsolt Floating Time Inhibition (Percent) [2] |
| --- | --- | --- | --- |
| C[C@@H](O)[C@H](NC(=O)OC(C)(C)C)C(=O)N1CCCC12CNC2=O (stereo in doubt) [Compound 4S-FNL-2, tert-butyl (3-hydroxy-1-oxo-1-(1-oxo-2,5-diazaspiro [3.4]octan-5-yl)butan-2-yl)carbamate] | 10.26 | – | – |
| C[C@@H](O)[C@H](N)C(=O)N1CCCC12CNC2=O (stereo partly drawn) [Compound 4S-FNL-1, 5-((2S,3R)-2-amino-3-hydroxybutanoyl)-2,5-diazaspiro [3.4] octan-1-one] | – | 80% | 70% |
